# Assay results published in ChEMBL document CHEMBL4428102, “Discovery of an Orally Bioavailable Gonadotropin-Releasing Hormone Receptor Antagonist” (J Med Chem, 2016).
# pIC50: −log10 of the molar value.
# Target: T1, Gonadotropin-releasing hormone receptor (Homo sapiens, UniProt P30968)
# T1 sequence (P30968 whole entry): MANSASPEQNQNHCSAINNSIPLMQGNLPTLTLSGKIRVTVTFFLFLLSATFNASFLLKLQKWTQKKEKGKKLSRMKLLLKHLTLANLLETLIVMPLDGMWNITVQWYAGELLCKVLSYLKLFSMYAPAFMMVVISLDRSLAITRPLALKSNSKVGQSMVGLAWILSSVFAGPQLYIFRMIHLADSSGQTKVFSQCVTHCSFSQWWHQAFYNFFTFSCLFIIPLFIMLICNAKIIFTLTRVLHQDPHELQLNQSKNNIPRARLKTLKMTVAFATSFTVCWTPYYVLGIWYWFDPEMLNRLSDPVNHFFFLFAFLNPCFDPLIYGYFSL
# Experiment: Displacement of [125I]D-Trp6-LHRH from human GnRH receptor expressed in CHO-K1 cell membranes incubated for 1 hr by competitive binding assay
row,Structure (SMILES),pIC50
1,Cc1c(N2CCN(Cc3ccccc3)CC2)c(=O)n(C[C@H](N)c2ccccc2)c(=O)n1Cc1c(F)cccc1F,7.92
2,COc1ccccc1CN1CCN(c2c(C)n(Cc3c(F)cccc3F)c(=O)n(C[C@H](N)c3ccccc3)c2=O)CC1,< 6.00
3,COc1cccc(CN2CCN(c3c(C)n(Cc4c(F)cccc4F)c(=O)n(C[C@H](N)c4ccccc4)c3=O)CC2)c1,7.83
4,Cc1c(N2CCN(Cc3ccc[nH]c3=O)CC2)c(=O)n(C[C@H](N)c2ccccc2)c(=O)n1Cc1c(F)cccc1C(F)(F)F,< 7.00
5,Cc1c(N2CCN(Cc3cccc(Cl)c3)CC2)c(=O)n(C[C@H](N)c2ccccc2)c(=O)n1Cc1c(F)cccc1F,8.51
6,Cc1c(N2CCCCC2C)c(=O)n(C[C@H](N)c2ccccc2)c(=O)n1Cc1c(F)cccc1F (some centres undefined),< 7.00
7,Cc1ccccc1CN1CCN(c2c(C)n(Cc3c(F)cccc3F)c(=O)n(C[C@H](N)c3ccccc3)c2=O)CC1,7.13
8,Cc1c(N2CCC(c3ccccc3)C2)c(=O)n(C[C@H](N)c2ccccc2)c(=O)n1Cc1c(F)cccc1F (some centres undefined),< 7.00
9,Cc1c(N2CCC(Cc3ccccc3)CC2)c(=O)n(C[C@H](N)c2ccccc2)c(=O)n1Cc1c(F)cccc1F,7.47
10,Cc1c(N2CCN(Cc3cccc(C(F)(F)F)c3)CC2)c(=O)n(C[C@H](N)c2ccccc2)c(=O)n1Cc1c(F)cccc1F,9.04
11,Cc1c(N2CCN(Cc3ccncc3)CC2)c(=O)n(C[C@H](N)c2ccccc2)c(=O)n1Cc1c(F)cccc1F,< 7.00
12,Cc1c(N2CCN(Cc3cccc(C#N)c3)CC2)c(=O)n(C[C@H](N)c2ccccc2)c(=O)n1Cc1c(F)cccc1F,8.30
13,Cc1c(N2CCC(C)CC2)c(=O)n(C[C@H](N)c2ccccc2)c(=O)n1Cc1c(F)cccc1F,7.12
14,Cc1c(N2CCN[C@H](Cc3ccccc3)C2)c(=O)n(C[C@H](N)c2ccccc2)c(=O)n1Cc1c(F)cccc1F,< 7.00
15,Cc1c(N2CCN(C(=O)c3ccccc3)CC2)c(=O)n(C[C@H](N)c2ccccc2)c(=O)n1Cc1c(F)cccc1F,< 7.00
16,Cc1c(N2CCCC(c3ccccc3)C2)c(=O)n(C[C@H](N)c2ccccc2)c(=O)n1Cc1c(F)cccc1F (some centres undefined),< 7.00
17,Cc1c(N2CCN(Cc3ccc(C(F)(F)F)cc3)CC2)c(=O)n(C[C@H](N)c2ccccc2)c(=O)n1Cc1c(F)cccc1F,7.18
18,Cc1c(N2CCN(Cc3ccccc3C#N)CC2)c(=O)n(C[C@H](N)c2ccccc2)c(=O)n1Cc1c(F)cccc1F,8.17
19,Cc1c(N2CCNC(c3ccccc3)C2)c(=O)n(C[C@H](N)c2ccccc2)c(=O)n1Cc1c(F)cccc1F (some centres undefined),< 7.00

row,Structure (SMILES),pIC50
1,Cc1c(N2CCCCC2)c(=O)n(C[C@H](N)c2ccccc2)c(=O)n1Cc1c(F)cccc1F,6.89
2,Cc1c(N2CCN(Cc3ccc(C#N)cc3)CC2)c(=O)n(C[C@H](N)c2ccccc2)c(=O)n1Cc1c(F)cccc1F,8.00
3,Cc1c(N2CCN(Cc3cccc(OC(F)(F)F)c3)CC2)c(=O)n(C[C@H](N)c2ccccc2)c(=O)n1Cc1c(F)cccc1F,8.82
4,Cc1c(N2CCN(CC3CCCCC3)CC2)c(=O)n(C[C@H](N)c2ccccc2)c(=O)n1Cc1c(F)cccc1F,< 6.00
5,Cc1c(N2CCN(Cc3ccccn3)CC2)c(=O)n(C[C@H](N)c2ccccc2)c(=O)n1Cc1c(F)cccc1F,< 7.00
6,Cc1c(N2CCN(CC(=O)c3ccccc3Cl)CC2)c(=O)n(C[C@H](N)c2ccccc2)c(=O)n1Cc1c(F)cccc1F,< 7.00
7,Cc1c(N2CCN(c3ccccc3)CC2)c(=O)n(C[C@H](N)c2ccccc2)c(=O)n1Cc1c(F)cccc1F,< 6.00
8,Cc1ccc(CN2CCN(c3c(C)n(Cc4c(F)cccc4F)c(=O)n(C[C@H](N)c4ccccc4)c3=O)CC2)cc1,7.18
9,Cc1c(N2CCCC(C)C2)c(=O)n(C[C@H](N)c2ccccc2)c(=O)n1Cc1c(F)cccc1F (some centres undefined),7.10
10,Cc1c(N2CCN(S(=O)(=O)c3ccccc3)CC2)c(=O)n(C[C@H](N)c2ccccc2)c(=O)n1Cc1c(F)cccc1F,< 7.00
11,Cc1c(N2CCNC(CCO)C2)c(=O)n(C[C@H](N)c2ccccc2)c(=O)n1Cc1c(F)cccc1F (some centres undefined),< 7.00
12,Cc1c(N2CCc3ccccc3C2)c(=O)n(C[C@H](N)c2ccccc2)c(=O)n1Cc1c(F)cccc1F,< 7.00
13,Cc1c(N2CCN(Cc3cccc4cccnc34)CC2)c(=O)n(C[C@H](N)c2ccccc2)c(=O)n1Cc1c(F)cccc1C(F)(F)F,< 7.00
14,Cc1c(N2CCN(Cc3ccc(F)cc3)CC2)c(=O)n(C[C@H](N)c2ccccc2)c(=O)n1Cc1c(F)cccc1F,7.31
15,Cc1c(N2CCN(Cc3ccccc3OC(F)(F)F)CC2)c(=O)n(C[C@H](N)c2ccccc2)c(=O)n1Cc1c(F)cccc1F,< 7.00
16,Cc1c(N2CCN(Cc3ccccc3C(F)(F)F)CC2)c(=O)n(C[C@H](N)c2ccccc2)c(=O)n1Cc1c(F)cccc1F,7.18
17,Cc1c(N2CCN(Cc3cccc(F)c3F)CC2)c(=O)n(C[C@H](N)c2ccccc2)c(=O)n1Cc1c(F)cccc1F,8.00
18,Cc1c(N2CCN(Cc3cccc(F)c3)CC2)c(=O)n(C[C@H](N)c2ccccc2)c(=O)n1Cc1c(F)cccc1F,8.42
19,Cc1c(N2CCN(Cc3ccc([N+](=O)[O-])cc3)CC2)c(=O)n(C[C@H](N)c2ccccc2)c(=O)n1Cc1c(F)cccc1F,7.43

row,Structure (SMILES),pIC50
1,Cc1c(N2CCN(CC3COc4ccccc4O3)CC2)c(=O)n(C[C@H](N)c2ccccc2)c(=O)n1Cc1c(F)cccc1F (some centres undefined),< 7.00
2,Cc1c(N2CCN(Cc3ccc(Cl)cc3)CC2)c(=O)n(C[C@H](N)c2ccccc2)c(=O)n1Cc1c(F)cccc1F,7.85
3,Cc1c(N2CCN(Cc3ccccc3F)CC2)c(=O)n(C[C@H](N)c2ccccc2)c(=O)n1Cc1c(F)cccc1F,8.39
4,Cc1c(N2CCC(Cc3ccccc3)C2)c(=O)n(C[C@H](N)c2ccccc2)c(=O)n1Cc1c(F)cccc1F (some centres undefined),< 7.00
5,Cc1cccc(CN2CCN(c3c(C)n(Cc4c(F)cccc4F)c(=O)n(C[C@H](N)c4ccccc4)c3=O)CC2)c1,< 7.00
6,Cc1c(N2CCN(c3ccccn3)CC2)c(=O)n(C[C@H](N)c2ccccc2)c(=O)n1Cc1c(F)cccc1F,< 6.00
7,Cc1c(N2CCCC(Cc3ccccc3)C2)c(=O)n(C[C@H](N)c2ccccc2)c(=O)n1Cc1c(F)cccc1F (some centres undefined),< 7.00
8,Cc1c(N2CCN(Cc3ccccc3Cl)CC2)c(=O)n(C[C@H](N)c2ccccc2)c(=O)n1Cc1c(F)cccc1F,7.72
9,Cc1c(N2CCN(Cc3ccccc3[N+](=O)[O-])CC2)c(=O)n(C[C@H](N)c2ccccc2)c(=O)n1Cc1c(F)cccc1F,7.88
10,Cc1c(N2CCN(C(=O)OCc3ccccc3)CC2)c(=O)n(C[C@H](N)c2ccccc2)c(=O)n1Cc1c(F)cccc1F,< 7.00
11,Cc1c(N2CCNCC2)c(=O)n(C[C@H](N)c2ccccc2)c(=O)n1Cc1c(F)cccc1F,< 6.00
12,Cc1c(N2CCN(Cc3cccc(C(F)(F)F)c3F)CC2)c(=O)n(C[C@H](N)c2ccccc2)c(=O)n1Cc1c(F)cccc1F,8.96
13,Cc1c(N2CCN(Cc3ccc(O)cc3)CC2)c(=O)n(C[C@H](N)c2ccccc2)c(=O)n1Cc1c(F)cccc1F,7.45
14,Cc1c(N2CCN[C@@H](Cc3ccccc3)C2)c(=O)n(C[C@H](N)c2ccccc2)c(=O)n1Cc1c(F)cccc1F,< 7.00
15,Cc1c(N2CCN(CCCc3ccccc3)CC2)c(=O)n(C[C@H](N)c2ccccc2)c(=O)n1Cc1c(F)cccc1F,< 7.00
16,COc1ccc(CN2CCN(c3c(C)n(Cc4c(F)cccc4F)c(=O)n(C[C@H](N)c4ccccc4)c3=O)CC2)cc1,< 7.00
17,Cc1c(N2CCN(Cc3cccnc3)CC2)c(=O)n(C[C@H](N)c2ccccc2)c(=O)n1Cc1c(F)cccc1F,7.86
18,Cc1c(N2CCN(Cc3cccc(C(=O)O)c3)CC2)c(=O)n(C[C@H](N)c2ccccc2)c(=O)n1Cc1c(F)cccc1C(F)(F)F,< 7.00
19,Cc1c(N2CCN(CCc3ccccc3)CC2)c(=O)n(C[C@H](N)c2ccccc2)c(=O)n1Cc1c(F)cccc1F,< 7.00

# Target: T1, Gonadotropin-releasing hormone receptor
# Experiment: Antagonist activity against human GnRH receptor expressed in HEK293 cells co-transfected with pGL4-NFAT promoter AP1-luc assessed as inhibition of 20 nM GnRH-induced NFAT activation pre-incubated for 1 hr before GnRH stimulation and measured after 6 hrs by luciferase reporter gene assay
# Assay type: cell-based
row,Structure (SMILES),pIC50
1,Cc1c(N2CCN(Cc3cccc4cnoc34)CC2)c(=O)n(C[C@H](N)c2ccccc2)c(=O)n1Cc1c(F)cccc1C(F)(F)F,< 6.52
2,Cc1c(N2CCN(Cc3cccc(C(F)(F)F)n3)CC2)c(=O)n(C[C@H](N)c2ccccc2)c(=O)n1Cc1c(F)cccc1C(F)(F)F,6.66
3,Cc1c(N2CCN(Cc3cccnc3C(F)(F)F)CC2)c(=O)n(C[C@H](N)c2ccccc2)c(=O)n1Cc1c(F)cccc1C(F)(F)F,< 6.52
4,Cc1c(N2CCN(Cc3cccc([N+](=O)[O-])c3F)CC2)c(=O)n(C[C@H](N)c2ccccc2)c(=O)n1Cc1c(F)cccc1C(F)(F)F,6.94
5,Cc1c(N2CCN(Cc3cccc4occc34)CC2)c(=O)n(C[C@H](N)c2ccccc2)c(=O)n1Cc1c(F)cccc1C(F)(F)F,< 6.52
6,Cc1c(N2CCN(Cc3cccc(-c4ncco4)c3)CC2)c(=O)n(C[C@H](N)c2ccccc2)c(=O)n1Cc1c(F)cccc1C(F)(F)F,7.28
7,Cc1c(N2CCN(Cc3cccc(F)c3C#N)CC2)c(=O)n(C[C@H](N)c2ccccc2)c(=O)n1Cc1c(F)cccc1C(F)(F)F,6.97
8,Cc1c(N2CCN(Cc3ccnc(C(F)(F)F)c3)CC2)c(=O)n(C[C@H](N)c2ccccc2)c(=O)n1Cc1c(F)cccc1C(F)(F)F,6.65
9,Cc1c(N2CCN(Cc3nnc(C(F)(F)F)o3)CC2)c(=O)n(C[C@H](N)c2ccccc2)c(=O)n1Cc1c(F)cccc1C(F)(F)F,< 6.52
10,Cc1c(N2CCN(Cc3ccc(C(C)(C)C)o3)CC2)c(=O)n(C[C@H](N)c2ccccc2)c(=O)n1Cc1c(F)cccc1C(F)(F)F,< 6.52
11,Cc1c(N2CCN(Cc3cc(C(F)(F)F)co3)CC2)c(=O)n(C[C@H](N)c2ccccc2)c(=O)n1Cc1c(F)cccc1C(F)(F)F,< 6.52
12,Cc1c(N2CCN(Cc3cccc(C(N)=O)c3F)CC2)c(=O)n(C[C@H](N)c2ccccc2)c(=O)n1Cc1c(F)cccc1C(F)(F)F,7.38
